The source of these data is patent US8137700B2, “Main chain acid-degradable polymers for the delivery of bioactive materials” (U.S. Department of Energy, priority 2006, dated 2012).

The experiment concerns LacZ B3Z hybridoma. In words: LacZ MHC Class I antigen presentation assay. The class given is cell-based. The procedure: In one embodiment, particles prepared from these acid degradable epolymer backbones are designed to release their bioactive material payload into the cytoplasm of cells upon lysosomal destabilization. Higher loading capacity of the particles may also lead to greater antigen presentation of the encapsulated bioactive material. In the antigen presentation assay described by Sanderson, S.; Shastri, N. in Inter. Immun. 1994, 6, 369-376, the β-galactosidase activity of B3Z T cells is measured. Antigen presenting cells display the peptide having the sequence, […] (SEQ ID NO: 8), upon phagocytosis of ovalbumin. These cells are engineered to transcribe β-galactosidase when in the presence of antigen presenting cells displaying the […] peptide (SEQ ID NO: 8). β-galactosidase then liberates chlorophenol red from the chlorophenol red βgalactoside that is present in solution. Absorbance of chlorophenol red is measured by UV absorbance at 595 nm. Therefore this assay can be used as a measurement of the amount of bioactive material delivered into the cytoplasm of cells by the microgel particles of the invention by measuring the amount of liberated chlorophenol red by UV absorbance at 595 nm.
The LacZ MHC Class I antigen presentation assay, as described by the antigen Sanderson, S.; Shastri, N. in Inter. Immun. 1994, 6, 369-376, is performed with degradable polymer particles made according to Example 7 with the degradable polymers in Example 1 and 3 to test their ability to deliver proteins into APCs for Class I antigen presentation. This experiment uses the LacZ B3Z hybridoma, which is a CTL that recognizes the peptide sequence, […] (SEQ ID NO: 8), from ovalbumin, complexed with the MHC Class I molecule H-2 K^b. This hybridoma produces P-galactosidase after encountering APCs that present […] as a Class I antigen, thus allowing Class I antigen presentation to be quantified by measuring β-galactosidase activity.
A maximum absorbance of 0.25 is observed with the […] peptide (SEQ ID NO: 8), which results in 100% T-cell activation. At about 0.4 mg of particle/mL, degradable particles made as in Examples 1, should show an absorbance close to that of 0.25 at which 100% T-cell activation occurs.

Regarding SIINFEKL, under “at maximum absorbance”, the T-cell activation is given as 100%. For the setting “chlorophenol red, 595 nm”, this substance came in with a maximum absorbance of 0.25.

“free ovalbumin: free ovalbumin protein, comparator”: the “U.V. absorbance resulting from activation” value (1 mg/ml of free ovalbumin) came to 0.037. Also, the “activation of CTLs by APCs” value (APCs incubated with the substance) is “not able to activate CTLs”.
